Data from ChEMBL document CHEMBL4138232, “O2-(2,4-dinitrophenyl)diazeniumdiolates derivatives: Design, synthesis, cytotoxic evaluation and reversing MDR in MCF-7/ADR cells” (Eur J Med Chem, 2018).

Tests used:
[1] = system: HCT-116; assay: Cytotoxicity against human HCT116 cells overexpressing GST-Pi assessed as inhibition of cell viability at 10 uM after 48 hrs by MTT assay relative to control; format: functional; conditions: HCT-116, 48 h
[2] = Selectivity ratio of IC50 for human HCT116 cells to IC50 for human MDA-MB-231 cells; format: functional
[3] = Selectivity ratio of IC50 for human U2OS cells to IC50 for human MDA-MB-231 cells; format: functional
[4] = system: MCF7; assay: Cytotoxicity against ADR-sensitive human MCF7 cells assessed as inhibition of cell viability after 48 hrs by MTT assay; format: cell-based; conditions: MCF7, 48 h
[5] = system: HCT-116; assay: Antiproliferative activity against human HCT116 cells after 48 hrs by MTT assay relative to control; format: functional, cell-based; conditions: HCT-116, 48 h
[6] = system: A549; assay: Antiproliferative activity against human A549 cells after 48 hrs by MTT assay relative to control; format: functional, cell-based; conditions: A549, 48 h
[7] = system: MCF-10A; assay: Antiproliferative activity against human MCF10A cells after 48 hrs by MTT assay relative to control; format: cell-based
[8] = system: U2OS; assay: Antiproliferative activity against human U2OS cells after 48 hrs by MTT assay relative to control; format: functional, cell-based
[9] = Selectivity ratio of IC50 for human A549 cells to IC50 for human MDA-MB-231 cells; format: functional
[10] = Cytotoxicity against ADR-sensitive human MCF7 cells assessed as inhibition of cell viability at 10 uM after 48 hrs by MTT assay relative to control; format: cell-based; conditions: read-out: INH
[11] = species on record: Homo sapiens; assay: Inhibition of MDR in human MCF7/ADR cells assessed as potentiation of adriamycin-induced antiproliferative activity by measuring fold reduction in adriamycin IC50 at 10 uM after 48 hrs by MTT assay; format: cell-based
[12] = system: MDA-MB-231; assay: Antiproliferative activity against human MDA-MB-231 cells after 48 hrs by MTT assay relative to control; format: functional, cell-based; conditions: MDA-MB-231, 48 h
[13] = Selectivity ratio of IC50 for human MCF10A cells to IC50 for human MDA-MB-231 cells; format: toxicity; conditions: MCF10A cells versus MDA-MB-231 cells, read-out: Ratio IC50
[14] = target: T1, Glutathione S-transferase P (Homo sapiens, UniProt P09211); assay: Prodrug activation in human HCT116 cells assessed as GST-Pi-mediated NO release at 5 uM after 24 hrs in presence of NO scavenger carboxy-PTIO by nitrate reductase assay; format: cell-based
T1 sequence (P09211 whole entry): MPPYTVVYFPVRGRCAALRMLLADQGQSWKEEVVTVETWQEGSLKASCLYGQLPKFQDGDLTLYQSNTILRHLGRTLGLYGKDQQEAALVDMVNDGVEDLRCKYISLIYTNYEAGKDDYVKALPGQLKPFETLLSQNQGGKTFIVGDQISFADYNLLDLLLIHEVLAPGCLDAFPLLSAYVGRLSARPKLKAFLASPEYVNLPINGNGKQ

[15] = target: T1, Glutathione S-transferase P; assay: Prodrug activation in human HCT116 cells assessed as GST-Pi-mediated NO release at 5 uM after 24 hrs in presence of GST-Pi inhibitor etacrynic acid by nitrate reductase assay; format: cell-based
[16] = target: T1, Glutathione S-transferase P; assay: Prodrug activation in human HCT116 cells assessed as GST-Pi-mediated NO release at 5 uM after 24 hrs by nitrate reductase assay; format: cell-based

Row | Structure (SMILES) | inhibition at 10 µM [1] | Ratio IC50 [2] | Ratio IC50 [3] | IC50 [4] | IC50 [5] | IC50 [6] | IC50 [7] | IC50 [8] | Ratio IC50 [9] | cytotoxicity at 48 h, 10 µM [10] | fold change (FC) [11] | IC50 [12] | selectivity ratio [13] | Drug metabolism [14] | Drug metabolism [15] | Drug metabolism [16]
1 | CCCCCCOc1ccc(C2CC(c3cccc(Oc4cc(O/N=[N+](\[O-])N5CCOCC5)c([N+](=O)[O-])cc4[N+](=O)[O-])c3)=NN2C(C)=O)cc1OC (stereo not given) | 66.7% |  |  |  |  |  |  |  |  |  |  |  |  |  |  | 
2 | CCCCCCOc1ccc(/C=C/C(=O)c2cccc(Oc3cc(O/N=[N+](\[O-])N4CCOCC4)c([N+](=O)[O-])cc3[N+](=O)[O-])c2)cc1OC | 52.4% |  |  |  |  |  |  |  |  |  |  |  |  |  |  | 
3 | CN(C)c1ccc(/C=C/C(=O)c2cccc(Oc3cc(O/N=[N+](\[O-])N4CCOCC4)c([N+](=O)[O-])cc3[N+](=O)[O-])c2)cc1 | 57.1% |  |  |  |  |  |  |  |  |  |  |  |  |  |  | 
4 | COc1ccc(/C=C/C(=O)c2cccc(Oc3cc(O/N=[N+](\[O-])N4CCCCC4)c([N+](=O)[O-])cc3[N+](=O)[O-])c2)cc1 | 69.5% | 0.9 | 1.6 | 71 µM | 5.37 µM | 8.58 µM | 113 µM | 9.78 µM | 1.4 | 11.2% | 1.53 | 6.15 µM | 18.3 |  |  | 
5 | Cc1ccc(/C=C/C(=O)c2cccc(Oc3cc(O/N=[N+](\[O-])N4CCOCC4)c([N+](=O)[O-])cc3[N+](=O)[O-])c2)cc1 | 61.2% | 2 | 2.6 | 18.8 µM | 4.08 µM | 3.15 µM | 44.7 µM | 5.26 µM | 1.5 | 21.3% | 46.9 | 2.03 µM | 22 | Metabolite_Notdetected | Metabolite_Notdetected | 
6 | COc1ccc(/C=C/C(=O)c2cccc(Oc3cc(O/N=[N+](\[O-])N4CCOCC4)c([N+](=O)[O-])cc3[N+](=O)[O-])c2)cc1 | 68.7% | 0.9 | 1 | 29.9 µM | 4.91 µM | 5.9 µM | 16.6 µM | 5.19 µM | 1.1 | 5.4% | 64.2 | 5.34 µM | 3.1 |  |  | 
7 | COc1ccc(CCN(C)CCCC(C#N)(c2ccc(OC)c(OC)c2)C(C)C)cc1OC (stereo not given) |  |  |  |  |  |  |  |  |  |  | 29.8 |  |  |  |  | 
8 | CCCCOc1ccc(C2CC(c3cccc(Oc4cc(O/N=[N+](\[O-])N5CCCCC5)c([N+](=O)[O-])cc4[N+](=O)[O-])c3)=NN2C(C)=O)cc1OC (stereo not given) | 72.9% | 2.4 | 1.1 |  | 7.78 µM | 6.94 µM | 79.7 µM | 3.55 µM | 2.1 |  |  | 3.27 µM | 24.4 |  |  | 
9 | COc1ccc(/C=C/C(=O)c2cccc(Oc3cc(O/N=[N+](\[O-])N4CCCCC4)c([N+](=O)[O-])cc3[N+](=O)[O-])c2)cc1OC | 66.1% | 0.8 | 1 | 32.7 µM | 8.88 µM | 9.63 µM | 95.9 µM | 11.4 µM | 0.9 | 8.24% | 10.2 | 11.1 µM | 8.6 |  |  | 
10 | CN(C)c1ccc(/C=C/C(=O)c2cccc(Oc3cc(O/N=[N+](\[O-])N4CCCCC4)c([N+](=O)[O-])cc3[N+](=O)[O-])c2)cc1 | 65.9% |  |  |  |  |  |  |  |  |  |  |  |  |  |  | 
11 | CCOC(=O)N1CCN(/[N+]([O-])=N/Oc2ccc([N+](=O)[O-])cc2[N+](=O)[O-])CC1 | 78% |  |  |  | 4.86 µM | 6.53 µM | 4.91 µM | 6.27 µM |  |  |  | 5.75 µM |  | Metabolite_Notdetected | Metabolite_Notdetected | Metabolite_Detected
12 | COc1cc(/C=C/C(=O)c2cccc(Oc3cc(O/N=[N+](\[O-])N4CCOCC4)c([N+](=O)[O-])cc3[N+](=O)[O-])c2)cc(OC)c1OC | 77.6% | 2.4 | 4.4 | 20.9 µM | 2.92 µM | 1.96 µM | 13.8 µM | 5.17 µM | 1.7 | 21.5% | 72.3 | 1.18 µM | 11.7 | Metabolite_Notdetected | Metabolite_Notdetected | 
13 | COc1cc(/C=C/C(=O)c2cccc(Oc3cc(O/N=[N+](\[O-])N4CCCCC4)c([N+](=O)[O-])cc3[N+](=O)[O-])c2)cc(OC)c1OC | 63.7% | 1.5 | 1.4 | 30.4 µM | 5.29 µM | 4.65 µM | 80.8 µM | 4.65 µM | 1.4 | 19.2% | 42.5 | 3.42 µM | 23.6 |  |  | 
14 | CCCCCCOc1ccc(C2CC(c3cccc(Oc4cc(O/N=[N+](\[O-])N5CCCCC5)c([N+](=O)[O-])cc4[N+](=O)[O-])c3)=NN2C(C)=O)cc1OC (stereo not given) | 48% |  |  |  |  |  |  |  |  |  |  |  |  |  |  | 
15 | CCCCCOc1ccc(C2CC(c3cccc(Oc4cc(O/N=[N+](\[O-])N5CCCCC5)c([N+](=O)[O-])cc4[N+](=O)[O-])c3)=NN2C(C)=O)cc1OC (stereo not given) | 63.7% |  |  |  |  |  |  |  |  |  |  |  |  |  |  | 
16 | CCCCCOc1ccc(/C=C/C(=O)c2cccc(Oc3cc(O/N=[N+](\[O-])N4CCOCC4)c([N+](=O)[O-])cc3[N+](=O)[O-])c2)cc1OC | 66.6% |  |  |  |  |  |  |  |  |  |  |  |  |  |  | 
17 | Cc1ccc(/C=C/C(=O)c2cccc(Oc3cc(O/N=[N+](\[O-])N4CCCCC4)c([N+](=O)[O-])cc3[N+](=O)[O-])c2)cc1 | 62.2% | 1.7 | 1.4 | 59.1 µM | 6.31 µM | 5.66 µM | 128 µM | 5.22 µM | 1.5 | 14.2% | 51.2 | 3.74 µM | 34.2 |  |  | 
18 | CCCCOc1ccc(/C=C/C(=O)c2cccc(Oc3cc(O/N=[N+](\[O-])N4CCCCC4)c([N+](=O)[O-])cc3[N+](=O)[O-])c2)cc1OC | 58.6% |  |  |  |  |  |  |  |  |  |  |  |  |  |  | 
19 | CCCCOc1ccc(/C=C/C(=O)c2cccc(Oc3cc(O/N=[N+](\[O-])N4CCOCC4)c([N+](=O)[O-])cc3[N+](=O)[O-])c2)cc1OC | 70.2% |  |  |  |  |  |  |  |  |  |  |  |  |  |  | 
20 | CCCCCOc1ccc(C2CC(c3cccc(Oc4cc(O/N=[N+](\[O-])N5CCOCC5)c([N+](=O)[O-])cc4[N+](=O)[O-])c3)=NN2C(C)=O)cc1OC (stereo not given) | 68.3% |  |  | 35.8 µM |  |  |  |  |  | 21.7% | 16.8 |  |  |  |  | 
21 | CCCCCCOc1ccc(/C=C/C(=O)c2cccc(Oc3cc(O/N=[N+](\[O-])N4CCCCC4)c([N+](=O)[O-])cc3[N+](=O)[O-])c2)cc1OC | 16.1% |  |  |  |  |  |  |  |  |  |  |  |  |  |  | 
22 | CCCCCOc1ccc(/C=C/C(=O)c2cccc(Oc3cc(O/N=[N+](\[O-])N4CCCCC4)c([N+](=O)[O-])cc3[N+](=O)[O-])c2)cc1OC | 33% |  |  |  |  |  |  |  |  |  |  |  |  |  |  | 
